Experimental data published in patent publication US9468669B2, “Methods to treat dysregulated blood glucose disorders” (REGENTS OF THE UNIVERSITY OF MINNESOTA, priority 2013, dated 2016).

Columns and labels:
human islets [1] = assay: Human islet viability (acridine orange / propidium iodide staining); format: cell-based; conditions: for islet viability: 100 uM
Method: (§1) Living islets were isolated from the pancreas of a consenting organ donor via enzymatic digestion and isopycnic density gradient purification as previously described (Balamurugan, A N., et al., (2014) The Islets of Langerhans, 2nd Edition, 1-25). This isolation was performed as a standard procedure by an experienced team at the Schulze Diabetes Institute of the University of Minnesota under GMP conditions. A portion of the total number of isolated islets were granted for these experiments after quality control testing and quantification. Islets were maintained in culture in supplemented Prodo media with a 5.5 mM glucose concentration in a T-flask at 37° C., 5% CO2. Half-volume media changes were performed every 3′^d day.
After conditional incubations (described below), islets were placed in standard media for 2-8 hrs before viability assessment. The viability of islets was assessed by double staining an aliquot of ˜25 islets with acridine orange (stains living cells) and propidium iodide (stains necrotic or apoptotic cells) (Bank, H. L., (1988) In Vitro Cell Dev Biol 24, 266-73). Each islet in the sample was evaluated under a fluorescent microscope and assigned a value for the % of live cells present and those numbers averaged for that sample. 3× samples per condition were assayed each day for 3 consecutive days and on one day in a follow-up experiment 1 week later. Prior to staining, aliquots were incubated for 60 minutes (FIG. 12, n=2 days) or 90 minutes (FIG. 13, n=2 days) in each solution type used in the GSIR incubations in addition to 100 uM concentrations of D-serine, NMDA or D-serine+NMDA alone (i.e. in 0 glucose). […] On the 3rd day and in a subsequent follow-up experiment, islets were incubated for 90 minutes in the same solutions. In this case, viability was decreased only under those conditions with both the maximum glucose concentration (28 mM) and the addition of NMDA and/or D-serine with the most dramatic loss of viable islet cells (down to 81.1±1.1%) observed in the 28 mM glucose+100 uM NMDA+100 uM D-serine condition (FIG. 13).

human islets [2] = assay: Glucose stimulated insulin release (GSIR); format: cell-based; conditions: 100 uM, glucose series
Method: as §1, with “Half-volume media changes were performed every 3′^d day.” left out
After washing to remove culture media, approximate aliquots of 30 islet equivalents (IEQ, islet numbers normalized to an average size of 150 microns) were added to cell strainers immersed in 1.0 mL of 0-glucose solution. […] All well contents, both time 0 and post-stimulation samples, were stored at −80° C. until they could be assessed for insulin content via sandwich ELISA from a standard commercial mouse insulin ELISA kit. Insulin content, post-stimulation concentration minus the time 0 concentration, was normalized to the actual IEQ of each well, which was determined by Pico-green DNA assessment (Papas, K. K., et al., (2007), Am J Transplant 7, 707-13) of cell strainer contents recovered at the end of the final incubation. […]

[3] = Plasma D-serine during chronic, sustained drinking (capillary electrophoresis); format: in vivo, mice; conditions: 12.6 mg/mL drinking solution
Source text: The data from FIG. 4 were generated from an unpublished study of the impacts of D-serine on ethanol drinking. […] Blood was collected from the facial vein and assayed via capillary electrophoresis as described above after mice (n=2-4 per condition as shown in the x-axis) had been presented with a choice of water vs. D-serine (or ethanol) drinking solution for 2 weeks and then 2 weeks of exclusively drinking treated solution according to their indicated treatment category.

[4] = Core body temperature by rectal probe during chronic D-serine drinking; format: in vivo, mice; conditions: throughout the chronic D-serine drinking experiment
Method: (§2) Eight adult male mice of the C57 strain were tested in a chronic administration model. Mice were housed 2 per cage, with each cage outfitted with 2 special drinking tubes (50 mL conical+stopper with sipper tube) to minimize the impact of any problems with a single tube. Two cages of mice drank tap water and two cages of mice drank a D-serine solution (12.6 mg/ml in tap water), with solutions replaced every other day. Every other day, the food and drinking bottles were weighed to determine cage-wide consumptive behaviors and the mice were individually weighed. At specified intervals, mice were also tested for core body temperature by rectal probe and for 4-hours fasted blood glucose. All mice started with a week of water drinking. […] After one week, two cages (4 mice) were switched to D-serine solution. […] After this measure, all mice were again switched back to water. […] Both acute weight loss and increased drinking are prominent symptoms of the onset of diabetes.
The hypothalamus is known to regulate metabolism through its influence on circadian rhythm, hunger, thirst, body temperature and glucose utilization among others. […] Core body temperature, determined by rectal thermometer, was stable throughout the chronic D-serine drinking experiment (FIG. 8A) and between wildtype and DAO mutant mice (FIG. 8B).

blood glucose [5] = assay: Chronic D-serine drinking, fasted blood glucose, body weight and consumption; format: in vivo, mice of the C57 strain
Method: as §2, with “Mice were fasted for 4-6 hours. The tails were wiped with ethanol and allowed to dry. For a first time test, the tip of the tail was removed with a scissors. For subsequent tests, a needle was used to puncture the tail vein. The first drop of blood was wiped away and then the second drop was placed on a glucometer test strip. A second test was administered immediately and most scores were an average of the two readings. If there was more than a 100 unit discrepancy between the two readings, a third reading was taken and the reported value was an average of the three. Eight” for “Eight”

human islets [6] = assay: Sustained high concentration D-serine on human islet survival (1 week culture); format: cell-based; conditions: 100 uM NMDA and 500 uM D-serine
Method: as §1
After conditional incubations (described below), islets were placed in standard media for 2-8 hrs before viability assessment. The viability of islets was assessed by double staining an aliquot of ˜25 islets with acridine orange (stains living cells) and propidium iodide (stains necrotic or apoptotic cells) (Bank, H. L., (1988) In Vitro Cell Dev Biol 24, 266-73). Each islet in the sample was evaluated under a fluorescent microscope and assigned a value for the % of live cells present and those numbers averaged for that sample. 3× samples per condition were assayed each day for 3 consecutive days and on one day in a follow-up experiment 1 week later. […]

[7] = Plasma D-serine after acute i.p. administration (capillary electrophoresis); format: in vivo, mice; conditions: 2.7 g/kg i.p., 35 and 55 minutes after injection; ethanol 3 g/kg i.p. 15 min after D-serine
Method: The data from FIG. 3 serves as an example of a concentration reference value subject to the time frame and administration technique of the acute hypoglycemia experiments described in FIG. 1. A 20 uL blood sample was collected from the facial vein of mice prior to any treatment (time 0) and 20 and 40 minute intervals after an i.p. injection of ethanol (3 g/kg). A pre-treatment injection of saline (n=9) or D-serine (2.7 g/kg, i.p., n=9) was administered 15 minutes before ethanol such that the reported values also correspond to time 35 and 55 minutes after the pre-injection. These blood samples were assayed for D-serine using capillary electrophoresis, as described in the publication (Lockridge, 2012). Basal levels of plasma D-serine were ˜20 uM with post-injection values rising into the […].

blood glucose [8] = assay: Acute D-serine injection, fasted blood glucose by glucometer; format: in vivo, mice of the ddY strain; conditions: 2.7 g/kg i.p., 6 h fasted
Method: Mice were fasted for 4-6 hours. The tails were wiped with ethanol and allowed to dry. For a first time test, the tip of the tail was removed with a scissors. For subsequent tests, a needle was used to puncture the tail vein. The first drop of blood was wiped away and then the second drop was placed on a glucometer test strip. A second test was administered immediately and most scores were an average of the two readings. If there was more than a 100 unit discrepancy between the two readings, a third reading was taken and the reported value was an average of the three.
Four adult male mice of the ddY strain were fasted for 6 hours before testing. A blood glucose reading from each mouse was determined at the start (time 0). The mice were weighed and the average weight was used with an injection volume of 0.3 mL to calculate the concentration of D-serine to dissolve into saline. The dose, 2.7 g/kg, was picked based on previously published behavior studies in which the intraperitoneal dose was the most reliable in inducing a mouse behavior response during pre-pulse startle inhibition (Kanahara, N., et al., (2008), Psychopharmacology, 198, 363-374) and acute ethanol sedation (Lockridge, A., et al., (2012), Alcohol, 46:389-400). After time 0 testing, each mouse received either D-serine or saline (alternating by cage) at 5 minute intervals. Blood glucose readings were taken at 15, 30, 60 and 120 minutes after each mouse's initial injection. The data presented is the average blood glucose (mg/dL), determined by glucometer as previously described (FIG. 1). Each data point is the average of the two mice with the same treatment condition, while the standard error bars indicate the degree of individual variability between subjects. The saline injected control mice (black) maintained a steady glucose level (70-80% of baseline) throughout the testing period.

[9] = 12.6 mg/ml in drinking water, first week of treatment

Row | SMILES | islet viability (human islets [1]; 60 minutes incubation, all GSIR solution types and 0 glucose) | islet viability (viable islet cells) (human islets [1]; 90 minutes incubation, 28 mM glucose, 100 uM supplement) | effect on insulin secretion, supplement alone (human islets [2]) | plasma level relative to human patients undergoing D-serine oral therapy ([3]; versus clinical trials (Emilov 2013)) | concentration at 4 weeks ([3]; mouse, plasma, oral, 2 weeks choice then 2 weeks exclusive drinking, read-out: basal D-serine plasma level) | core body temperature [4] | solution drinking (blood glucose [5]; 12.6 mg/ml in drinking water) | blood sugar (blood glucose [5]; 12.6 mg/ml in drinking water, 16 days of drinking, 4-hours fasted) | blood sugar (blood glucose [5]; 12.6 mg/ml in drinking water, after 7 days of drinking, 4-hours fasted) | body weight (blood glucose [5]; [9]) | eating (blood glucose [5]; [9]) | blood glucose (blood glucose [5]; 12.6 mg/ml in drinking water, two days after the switch, 4-hours fasted) | blood glucose after switch back to water (blood glucose [5]; after a week of water drinking following 16 days of D-serine) | average viability, % viable cells per islet (human islets [6]) | islets recovered, average pool IEQ (human islets [6]; Pico-green DNA assay) | islet viability (human islets [1]; human, 60 min) | plasma D-serine, post-injection [7] | blood sugar (blood glucose [8]; 15 and 30 minutes after injection) | blood sugar, % of baseline (blood glucose [8]; 60 minutes after injection) | blood sugar, % of baseline (blood glucose [8]; 120 minutes after injection)
1 | CN[C@H](CC(=O)O)C(=O)O [NMDA, N-methyl-D-aspartate] | ~100% | decreased | no effect on 2 out of 3 days tested |  |  |  |  |  |  |  |  |  |  |  |  |  |  |  |  | 
2 | N[C@H](CO)C(=O)O [D-serine] |  |  | no effect | 2-3 times higher | 400 to 600 µM | stable | increased | 170 ± 9 mg/dL | 149 ± 12 mg/dL | weight loss | reduced eating | still at baseline levels | recovered back to baseline glucose levels | 84±2.4% | 1137±172 IEQ | ~100% | ~12 mM | stable | 52 % of baseline | 36 % of baseline
